Here are results for one compound from publication PMC6436930 (Molecular Cell, 2019).

The structures appear in SMILES notation.

The experiment deals with MbcT (Rv1989c) (Mycobacterium tuberculosis, UniProt P9WLP9).
MbcT (Rv1989c), sequence (P9WLP9 whole entry): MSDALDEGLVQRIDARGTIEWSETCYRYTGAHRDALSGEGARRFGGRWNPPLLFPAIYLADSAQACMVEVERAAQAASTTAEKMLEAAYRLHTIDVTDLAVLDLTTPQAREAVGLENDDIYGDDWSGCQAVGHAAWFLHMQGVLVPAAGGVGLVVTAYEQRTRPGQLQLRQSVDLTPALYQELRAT

As for `NC(=O)c1ccc[n+]([C@@H]2O[C@H](COP(=O)(O)OP(=O)(O)OC[C@H]3O[C@@H](n4cnc5c(N)ncnc54)[C@H](O)[C@@H]3O)[C@@H](O)[C@H]2O)c1` [NAD^+], the Michaelis-Menten constant (Km) (commonly the concentration of substrate that gives half-maximal velocity) is 110 ± 8 µM.
